Measurements as given in US11357850B2, “Methods for treating breast cancer using INOS-inhibitory compositions” (The Methodist Hospital, priority 2014, dated 2022).
Where two headings read alike, the source gives them in different places.

Tests used:
MCF10A = test: Western blot of PERK/eIF2α/ATF4/ATF3 axis with recombinant TGFβ1; assay type: cell-based; details: 10 ng/mL for 24 hrs
Text: FIG. 3A, FIG. 3B, FIG. 3C, FIG. 3D, FIG. 3E, FIG. 3F, FIG. 3G, FIG. 311, FIG. 3I, and FIG. 3J show iNOS knockdown impairs tumorigenicity and EMT by a dual impact on HIF1α and endoplasmic reticulum (ER) stress/TGFβ/AFT4/ATF3 crosstalk. Proliferation (FIG. 3A), migration (FIG. 3B), and self-renewal capacity (primary and secondary mammospheres) (FIG. 3C) in MDA-MB-231 cells transfected with two different NOS2-directed shRNAs (shRNA1, shRNA2) compared with empty vector (shRNA-EV). […] Selective iNOS inhibition reduced hypoxia (HIF1α), ER stress markers (IRE1α, ATF4) (FIG. 3F), phospho-Smad2/3, Smad2/3 and mature TGFβ protein levels in MDA-MB-231 and SUM159 cells (FIG. 3G). FIG. 3H: Recombinant TGFβ1 (10 ng/mL for 24 hrs) activates the PERK/eIF2α/ATF4/ATF3 axis in MCF10A. […] FIG. 3J: Selective iNOS inhibition is postulated to impair EMT and tumor cell migration by an impact on HIF1α, ER stress (IRE1α/XBP1) and the crosstalk between ATF4, ATF3 and TGFβ. Results were normalized to empty vector. Data are presented as mean±SEM. ****p<0.0001, ***p<0.001, **p<0.01. One-way ANOVA and Bonferroni's post-hoc test;
Western Blot. Cells were cultured at a density of 2.5×10^5 cells/well in 6-well plates with or without iNOS inhibitors for 96 hrs. Cells were resuspended in 1× lysis buffer (Cell Signaling Technology, Inc.) and 1× protease/phosphatase inhibitor cocktail (Thermo Scientific). […]

SUM159 = test: Cell proliferation assay (WST-1), calcium channel antagonists; assay type: cell-based, human; details: 0, 1, 5, and 10 μM for 72 hrs
Procedure: (§1) Cell Proliferation Assay In Vitro. Mesenchymal-like, TNBC cell lines, MDA-MB-231 and SUM159, were grown in DMEM supplemented with 10% fetal bovine serum and 1% antibiotic-antimycotic. Stock solutions of various calcium-channel antagonists (amlodipine, nicardipine, nifedipine, felodipine, isradipine, diltiazem, verapamil, lacidipine, nisoldipine, nitrendipine, nivaldipine, azelnidipine, barnidipine, benidipine, efonidipine, lercanidipine, pranidipine, and manidipine) were prepared in DMSO. Effects on cell proliferation were assayed with the WST-1 method. Briefly, 1,000 (SUM159) and 2,000 (MDA-MB-231) cells/well were plated in a 96-well plate and treated with different concentrations (0, 1, 5, and 10 μM) of calcium channel antagonists for 72 hrs. Proliferation rate was determined by adding premixed WST-1 reagent. After incubation at 37° C. for three hrs, absorbance was read at 450 nm (reference wavelength 690 nm). Results were normalized against vehicle (100%). The antagonists were considered active when proliferation was decreased in ≥30%.

MDA-MB-231 = test: as above; assay type: cell-based, human; details: 0, 1, 5, and 10 μM for 72 hrs
Procedure: as §1

SUM159 xenografts = SUM159 xenografts treated with L-NMMA, docetaxel, combination; assay type: in vivo, mice
Procedure: (§2) Animal Studies. Female SCID Beige mice (4-5 weeks old) (Harlan Laboratories, Houston, Tex., USA) were housed under standard laboratory conditions (22° C.; 12 hrs/12 hrs light/dark cycle and free access to food and water). Either MDA-MB-231 or SUM159 cells (3×10^6) were injected in the right mammary fat pad. Once the tumors reached 150-200 mm^3, the mice were randomized into different groups as follows (n=10/group): 1) Vehicle (saline, i.p.), 2) L-NMMA (either 80 mg/kg or 200 mg/kg, i.p., daily), 3) Docetaxel (20 mg/kg), 4) Combo (L-NMMA and docetaxel).
(§3) Self-renewal and tumor-initiating capacity was determined by MSFE and limiting-dilution assays, respectively, in single cells isolated from tumor tissue. Briefly, breast tumor tissue was minced, digested in DMEM:F12 medium with 100 U/mL of collagenase type 3 (Worthington, Lakewood, N.J., USA) and 0.8 U/mL of dispase (Gibco, Carlsbad, Calif., USA) at 37° C. for 45 min. MSFE was assayed in isolated single cells as stated above. The limiting dilution assay (LDA) was performed injecting either […] isolated cells from tumor tissue in the mammary fat pad of SCID Beige mice (n=12/group). Flow cytometric analysis of CD44^+/CD24^−/low cell population was assayed using published methods.
To answer this question, daily injections of 80 mg/kg L-NMMA were first given to SUM159 xenograft-bearing mice alone or in combination with docetaxel (20 mg/kg). […] The inventor next analyzed the impact on CSC self-renewal by the MSFE assay.

MDA-MB-231 xenografts = MDA-MB-231 xenografts treated with L-NMMA, docetaxel, combination; assay type: in vivo, mice
Procedure: as §2, §3
The role of L-NMMA was then investigated, either alone or in combination with docetaxel in a different TNBC mouse model. Docetaxel (20 mg/kg at days 0 and 21) and 200 mg/kg L-NMMA (daily) were given to MDA-MB-231 xenograft-bearing mice for 31 days.

[1] = system: unresectable stage III or IV advanced melanoma; details: cited from earlier work
[2] = system: ipilimumab-refractory metastatic melanoma; details: cited from earlier work
[3] = system: metastatic PD-L1-positive NSCLC; details: cited from earlier work
[4] = system: recurrent or metastatic head and neck squamous cell carcinoma; details: cited from earlier work
advanced melanoma = details: 2 mg/kg, 173 patients; cited from earlier work
[5] = system: advanced, PD-L1-positive TNBC; details: cited from earlier work

## recombinant TGFβ1: recombinant human TGF-β1 (CHO cell derived)
MCF10A
  PERK/eIF2α/ATF4/ATF3 axis: induced the PERK/eIF2α/ATF4/ATF3 axis

## COC(=O)C1=C(C#N)NC(C)=C(C(=O)OC(C)C)C1c1cccc([N+](=O)[O-])c1 (centres unmarked) [nivaldipine]
SUM159
  proliferation: dose-dependent decrease in proliferation
MDA-MB-231
  proliferation: dose-dependent decrease in proliferation

## CC(=O)O[C@@]12CO[C@@H]1C[C@H](O)[C@@]1(C)C(=O)[C@H](O)C3=C(C)[C@@H](OC(=O)[C@H](O)[C@@H](NC(=O)OC(C)(C)C)c4ccccc4)C[C@@](O)([C@@H](OC(=O)c4ccccc4)[C@H]21)C3(C)C [docetaxel]
SUM159 xenografts; 7 weeks with 5×10^4 cells, vehicle 12/12
  limiting dilution assay, tumors: 12/12
SUM159 xenografts; mouse, in vivo
  CD44+/CD24−/low population (flow cytometry): slight increase
  primary and secondary MSFE of single tumor cells isolated from tumor tissue: dramatic increase
SUM159 xenografts; week nine with 2×10^4 cells, vehicle 7/12
  limiting dilution assay, tumors: 3/12
MDA-MB-231 xenografts; 5 weeks with 5×10^4 cells, vehicle 12/12
  limiting dilution assay, tumors: 8/12
MDA-MB-231 xenografts; after six weeks, vehicle 6/12
  limiting dilution assay, tumors: 8/12
MDA-MB-231 xenografts; relative to the combination group
  apoptosis levels (cleaved caspase-3): higher apoptosis levels

## ipilimumab: comparator in the KEYNOTE-006 melanoma study
[1]; ipilimumab 3 mg/kg Q3W, four cycles
  estimated 6-month PFS rate: 26.5%
[1]; ipilimumab 3 mg/kg Q3W
  estimated 12-month survival rate: 58.2%
  rate of Grade 3-5 treatment-related AEs: 19.9%
  response rate: 11.9%

## pembrolizumab: humanized monoclonal antibody of the IgG4/κ isotype blocking the interaction between PD-1 and its ligands
[2]; 2 mg/kg Q3W
  6-month PFS rate: 34%
[2]; 2 mg/kg, 178 patients
  Grade 3-4 treatment-related fatigue, patients: 1%
[2]; 2 mg/kg
  Grade 3-4 generalized edema and myalgia (each), patients: 1%
  Grade 3-4 treatment-related adverse events, patients: 11%
[2]; 10 mg/kg Q3W
  6-month PFS rate: 38%
[2]; 10 mg/kg, 179 patients
  Grade 3-4 treatment-related fatigue, patients: < 1%
[2]; 10 mg/kg
  Grade 3-4 hypopituitarism, colitis, diarrhea, decreased appetite, hyponatremia, and pneumonitis (each), patients: 1%
  Grade 3-4 treatment-related adverse events, patients: 14%
[3]; 11 patients
  patients having a DoR of ≥6 months: 44%
[3]; 21 of 25
  responses ongoing at the time of the analysis, patients: 85%
[3]; 61 patients with PD-L1 strongly positive tumors, all partial responses
  objective response rate (ORR): 41%
[4]; 10 mg/kg Q2W or 200 mg Q3W, n=174
  ORR: 16%
[4]; 23 of 28
  responding patients with responses of 6 months or longer: 82%
[4]; in vivo
  SAEs, patients: 45%
  dyspnea, patients: 20%
  fatigue, patients: 46%
Advanced melanoma
  overall response rate: 24%
[1]; pembrolizumab 10 mg/kg Q2W
  estimated 6-month PFS rate: 47.3%
[1]; pembrolizumab 10 mg/kg Q3W
  estimated 6-month PFS rate: 46.4%
[1]; pembrolizumab Q2W
  estimated 12-month survival rate: 74.1%
  rate of Grade 3-5 treatment-related AEs: 13.3%
  response rate: 33.7%
[1]; pembrolizumab Q3W
  estimated 12-month survival rate: 68.4%
  rate of Grade 3-5 treatment-related AEs: 10.1%
  response rate: 32.9%
[5]; 10 mg/kg Q2W, 27 evaluable patients
  overall response rate: 18.5%
[5]; 10 mg/kg Q2W
  PR, patients: 14.8%
  complete response (CR), patients: 3.7%
  progressive disease (PD), patients: 48.1%
[5]; five patients
  Grade ≥3 AEs, patients: 15.6%
[5]; in vivo
  median DoR: not yet reached
[5]; range: 7.3-32.4 weeks
  median time to response: 17.9 weeks

## CCOC(=O)C1=C(C)NC(C)=C(C(=O)OCC)C1c1ccccc1/C=C/C(=O)OC(C)(C)C [lacidipine]
SUM159
  proliferation: dose-dependent decrease in proliferation
MDA-MB-231
  proliferation: dose-dependent decrease in proliferation

## CC1=C(C(=O)OC(C)C)C(c2cccc([N+](=O)[O-])c2)C(C(=O)OC2CN(C(c3ccccc3)c3ccccc3)C2)=C(N)N1 (centres unmarked) [azelnidipine]
SUM159
  proliferation: dose-dependent decrease in proliferation
MDA-MB-231
  proliferation: dose-dependent decrease in proliferation
